Patent publication US20230272077A1, “PD-1 SIGNAL INHIBITOR COMBINATION THERAPY” (KYOTO UNIVERSITY, priority 2015, published 2023)
Entries after “also recorded” stand apart in the source; their conditions may differ.

How the values were obtained:
[1] = tested on: mTOR and its associated proteins S6K and 4EBP1; assay: Western blotting of DLN CD8+ T cells, mTOR pathway; assay type: in vivo, mouse; details: CD8+ T cells from mice treated with PD-L1 antibody and reagent
Protocol: FIG. 7. […] Phosphorylation of AMPK, ACC, mTOR and S6K and the expression of SIRT1 and 4EBP1 were analyzed by Western blotting. b) MC38-bearing mice were treated with PD-L1 antibody in combination with AMPK activator (A769662) and/or mTOR activator (MHY1485) according to the same schedule as shown in FIG. 3b.
CD8^+ T cells were isolated using mouse CD8 Microbeads (Miltenyi Biotec). After washing with PBS twice, 2×10^6 cells were solubilized in a lysis buffer containing 30 mM Tris-HCl (pH.7.4), 150 mM NaCl, 10% glycerol, 0.1% SDS, 1% Triton-X-100, 0.05% Na-Doc, 5 mM EDTA (pH.8.0), protease inhibitor mixture (Roche Molecular Biochemicals) and phosphatase inhibitors (Nacalai Tesque). After measurement of protein concentrations by DC protein assay (Bio-Rad), 4 μg of proteins was mounted on 4 to 20% gradient Mini-PROTEAN TGX Gels (Bio-Rad) and electroblotted onto nitrocellulose membranes, which were then incubated in a blocking buffer of TBS containing 1% BSA. Primary antibody incubations were carried out overnight at 4° C. in blocking buffer. After washing, secondary antibody incubations were carried out at room temperature for 40 min in blocking buffer. Blots were developed with enhanced chemiluminescence (Amersham Pharmacia). […]

T-bet and Eomes = T-bet and Eomes expression by flow cytometry in DLN CD8+ T cells; assay type: in vivo, mouse; details: combined with PD-L1 antibody
Protocol: FIG. 15. […] Data represent the means±SEM of five mice. *p<0.05, **p<0.01, one-way ANOVA.
(§1) The following antibodies recognizing the indicated antigens were used: CD44 (1M7), CD45.2 (104), CD45.1 (A20), CD8 (53-6.7), CD62L (MEL-14), T-bet (4B/O) and IFN-7 (XMG1.2), MHC class I (AF6-88.5), CD155 (Tx56) and VISTA (MIH63) from BioLegend; p-AMPK (EPR5683) from Ancam; p-mTOR (MRRBY), Eomes (Danllmag) and PD-L1 (M1H5) from eBioscience. All flow cytometry experiments were performed on a FACS Canto II (BD Biosciences) and analyzed using FlowJo software (FLOWJO, LLC). For assessment of intracellular phosphoproteins, cells were permeabilized with 0.5% Triton-X and fixed with 1.5% PFA before staining. Determination of mitochondrial mass, membrane potential, mitochondrial superoxide and cellular ROS was performed using MitoTracker Green, Mito-Tracker Deep Red, MitoSOX Red, and CellROX Green reagents, respectively (all from Life Technologies). These dyes were added to cells to a final concentration of 0.125 μM, 0.125 μM, 5.0 μM and 0.625 μM, respectively, and incubated at 37° C. in a 5% CO2 humidified incubator for 30 min.

CD8+ T cells = tested on: CD8+ T cells
Protocol: FIG. 6. […] Draining lymph node (DLN) cells on day 14 were stained with anti-CD8, -CD62L, and -CD44 antibodies, and then CD8^+ T cells were gated. P1 to P3 populations were defined based on the intensities of CD62L and CD44 (Upper). The absolute cell numbers of P1 to P3 in each group were calculated. […] Representative FACS profiles of P1 to P3 (Upper). Representative FACS profiles of the P3 population stained with each mitochondrial dye in each group (Middle). MFI of P1 to P3 stained with each dye was compared between treated groups. Colors correspond to the P1 to P3 populations. […] CD45^+ CD8^+ T cells were gated, and their CD62L and CD44 phenotypes were analyzed (Left). The frequencies of CD8^+ T cells in CD45^+ T cells and the absolute numbers of CD45^+ CD8^+ T cells were compared between groups (Right). Data represent the means±SEM of five mice. *p<0.05, **p<0.01, one-way ANOVA analysis. FACS data are representative of five mice in each group.
For analyzing draining lymph nodes, cells from axillary, brachial, and inguinal lymph nodes on the right side of tumor-inoculated mice were harvested and mixed. Averaged cell numbers per one lymph node were used as absolute cell numbers. For tumor analysis, tumor tissues were minced into 2- to 3-mm pieces with scissors and digested with collagenase type IV (Thermo Fisher Scientific) using a gentle MACS Dissociator (Miltenyi Biotec). The numbers of tumor cells per mg were used as absolute numbers. Tumor cells were isolated from digested tumor tissues using a Tumor Cell Isolation Kit, mouse (Miltenyi Biotec). This kit purifies tumor cells by excluding lymphocytes, red blood cells, fibroblasts, endothelial cells and tumor-associated stromal cells. The resultant tumor cell population was further isolated/purified with FACS Aria (BD Biosciences).
as §1, with “These dyes were added to cells to a final concentration of 0.125 μM, 0.125 μM, 5.0 μM and 0.625 μM, respectively, and incubated at 37° C. in a 5% CO2 humidified incubator for 30 min.” left out

N#CC(C#N)=NNc1ccc(OC(F)(F)F)cc1 [FCCP, carbonyl cyanide p-trifluoromethoxyphenylhydrazone] was tested, and the “activation of mTOR and its associated proteins S6K and 4EBP1” value [1] was “also found to be activated”, the Eomes expression (T-bet and Eomes) was “not Eomes expression” and the T-bet expression (T-bet and Eomes) was “increased T-bet expression; also recorded: up-regulated”. The “mitochondrial membrane potential and ROS in P3 population” value (CD8+ T cells; MC38-bearing mice, FCCP combined with PD-L1 antibody) was “significantly augmented”, the “absolute number and proportion of effector CD8+ T cells (CD62L- CD44+, P3) in DLNs” value (CD8+ T cells; MC38-bearing mice, PD-L1 antibody + FCCP vs anti-PD-L1 antibody alone) was “significantly increased; also recorded: Increase” and the “numbers of naive T cells (P1) and central memory T cells (P2) in DLNs” value (CD8+ T cells; MC38-bearing mice, PD-L1 antibody alone, or addition of FCCP) was “no further increase”. For the same compound, the “toxic effects such as decrease in mitochondrial mass or fall in membrane potential” value (CD8+ T cells; at the dose used (1.2 mg/kg)) was “did not have toxic effects”.
